From patent US5486516A, “Furopyrimidine derivatives” (DowElanco, priority 1993, dated 1996)
Where two headings read alike, the source gives them in different places.

What was measured:
[1] = test system: Pyricularia oryzae (rice blast); assay: whole plant or invertebrate; assay type: in vivo; details: foliar, read-out: RICE BLAST control rating
[2] = test system: Southern corn rootworm (Diabrotica undecimpuctata howardi Barber); assay: Mite/insect screen, corn rootworm; assay type: in vivo; details: Diabrotica, soil, read-out: CRW results (percent mortality)
Description: (§1) The compounds of Examples were tested for miticidal and insecticidal activity in the following mite/insect screen.
(§2) Each test compound was formulated by dissolving the compound in acetone/alcohol (50:50) mixture containing 23 g of "TOXIMUL R" (sulfonate/nonionic emulsifier blend) and 13 g of "TOXIMUL S" (sulfonate/nonionic emulsifier blend) per liter. These mixtures were then diluted with water to give the indicated concentrations.
Activity on Southern corn rootworm (Diabrotica undecimpuctata howardi Barber) was evaluated by adding two ml of tap water, a presoaked corn seed, and 15 g of dry sandy soil to a one ounce plastic container. The soil was treated with 1 mL of test solution containing a predetermined concentration of test compound. After six to 12 hours of drying, five 2-3 instar corn rootworm larvae were added to the individual cups, which were then capped and held at 23° C.
(§3) After standard exposure periods, percent mortality and phytotoxicity were evaluated. […] The following abbreviations are used in Table 3:
CRW refers to corn rootworm

[3] = test system: southern armyworm (Spodopetra eridania Cramer); assay: Mite/insect screen, Southern armyworm; assay type: in vivo; details: Spodoptera eridania, read-out: SAW results (percent mortality)
Description: as §1, §2
(§4) Twospotted spider mites (Tetranychus urticae Koch) and melon aphids (Aphis gossvpii Glover) were introduced on squash cotyledons and allowed to establish on both leaf surfaces. Other plants in the same treatment pot were left uninfested. The leaves were then sprayed with 5 ml of test solution using a DeVilbiss atomizing sprayer at 10 psi. Both surfaces of the leaves were covered until runoff, and then allowed to dry for one hour. Two uninfested leaves were then excised and placed into a Petri dish containing larval southern armyworm (Spodopetra eridania Cramer).
as §3
SAW refers to Southern armyworm

[4] = test system: Twospotted spider mites (Tetranychus urticae Koch); assay: Mite/insect screen, twospotted spider mites; assay type: in vivo; details: Tetranychus urticae, read-out: SM results (percent mortality)
Description: as §1, §2, §4, §3
SM refers to twospotted spider mites

[5] = test system: melon aphids (Aphis gossvpii Glover); assay: Mite/insect screen, melon aphids; assay type: in vivo; details: Aphis, read-out: MA results (percent mortality)
Description: as §1, §2, §4, §3
MA refers to melon aphids.

[6] = test system: Puccinia recondita tritici (leaf rust); assay: Plant pathology screen (Test 1), leaf rust on wheat; details: in Triticum aestivum, foliar, read-out: LEAF RUST control rating
[7] = test system: Pseudoperonospora cubensis (downy mildew); assay: Plant pathology screen (Test 1), downy mildew on squash; details: foliar, read-out: DOWN MDEW control rating
[8] = test system: Erysiphe graminis tritici (powdery mildew); assay: Plant pathology screen (Test 1), powdery mildew on wheat; details: Blumeria graminis, in Triticum aestivum, foliar, read-out: POWD MDEW control rating
Description: (§5) The test compounds were formulated for application by dissolving 50 mg of the compound into 1.25 ml of solvent. The solvent was prepared by mixing 50 ml of "Tween 20" (polyoxyethylene (20) sorbitan monolaurate emulsifier) with 475 ml of acetone and 475 ml of ethanol. The solvent/compound solution was diluted to 125 ml with deionized water. The resulting formulation contains 400 ppm test chemical. Lower concentrations were obtained by serial dilution with the solvent-surfactant mixture.
The formulated test compounds were applied by foliar spray.
(§6) The formulated technical compounds were sprayed on all foliar surfaces of the host plants (or cut berry) to past run-off. Single pots of each host plant were placed on raised, revolving pedestals in a fume hood. Test solutions were sprayed on all foliar surfaces. All treatments were allowed to dry and the plants were inoculated with the appropriate pathogens within 2-4 hours.
(§7) The effectiveness of test compounds in controlling disease was rated using the following scale.

[9] = test system: Botrytis cinerea (gray mold); assay: Plant pathology screen (Test 1), gray mold on grape berries; details: read-out: GRAY MOLD control rating
Description: This screen was used to evaluate the efficacy of the present compounds against a variety of different organisms that cause plant diseases.
as §5
The formulated test compounds were applied by foliar spray. The following plant pathogens and their corresponding plants were employed.
as §6, §7

| Structure (SMILES) | pest or weed control at 400 µg/mL [1] [%] | mortality at 12 ppm ([2]; CRW rate 12.00 ppm) [%] | mortality at 24 ppm ([2]; CRW rate 24.00 ppm) [%] | mortality at 200 ppm ([3]; rate 200 ppm, sprayed leaves) [%] | mortality at 400 ppm ([3]; rate 400 ppm, sprayed leaves) [%] | mortality at 200 ppm ([4]; rate 200 ppm, sprayed leaves) [%] | mortality at 400 ppm ([4]; rate 400 ppm, sprayed leaves) [%] | mortality at 200 ppm ([5]; rate 200 ppm, sprayed leaves) [%] | mortality at 400 ppm ([5]; rate 400 ppm, sprayed leaves) [%] | pest or weed control at 400 µg/mL [6] [%] | pest or weed control at 400 µg/mL [7] [%] | pest or weed control at 400 µg/mL [8] [%] | pest or weed control at 400 µg/mL [9] [%] | further results |
| --- | --- | --- | --- | --- | --- | --- | --- | --- | --- | --- | --- | --- | --- | --- |
| Cc1oc2ncnc(OCC(C)c3ccc(CC(C)C)cc3)c2c1C (centres unmarked) [Example 67, 4-[2-[4-(2,2-dimethylethyl)phenyl]-2-methylethoxy]5,6-dimethylfuro[2,3-d]pyrimidine] | 90 to 100 | 0 | 0 | 0 | 0 | 100 | 100 | 100 | 100 | 20 to 89 | 20 to 89 | 20 to 89 | 20 to 89 |  |
| Cc1cc2c(NCCc3ccc4ccccc4c3)ncnc2o1 [Example 31, 6-methyl-N-[2-(2-naphthalenyl)ethyl]furo[2,3-d]pyrimidine-4-amine] | 20 to 89 | 0 | 0 | 100 | 80 | 20 | 100 | 90 | 0 | 90 to 100 | 90 to 100 | 20 to 89 | 0 to 19 |  |
| Cc1oc2ncnc(OCCN3C[C@@H](C)O[C@H](C)C3)c2c1C (relative stereo) [Example 58, Trans-5,6-dimethyl-4-[2-(2,6-dimethyl-4-morpholinyl)ethoxy]furo[2,3-d]pyrimidine] | 0 to 19 | 0 | 0 | 0 | 0 | 0 | 0 | 0 | 0 | 20 to 89 | 20 to 89 | 0 to 19 | 0 to 19 |  |
| COc1ccc(CCNc2ncnc3oc4c(c23)CCCC4)cc1 [Example 30, N-[2-(4-methoxyphenyl)ethyl]-5,6,7,8-tetrahydrobenzofuro[2,3-d]pyrimidin-4-amine] | 0 to 19 | 0 | 0 | 0 | 90 | 0 | 0 | 0 | 0 | 20 to 89 | 20 to 89 | 0 to 19 | 0 to 19 |  |
| Cc1oc2ncnc(NC(C)(C)Cc3ccccc3)c2c1C [Example 77, 5,6-dimethyl-N-[1,1-dimethyl-2-phenylethyl]furo[2,3-d]pyrimidin-4-amine] | 90 to 100 | 0 | 0 | 0 | 0 | 50 | 90 | 100 | 80 | 90 to 100 | 90 to 100 | 90 to 100 | 0 to 19 |  |
| Cc1oc2ncnc(NCC(Cc3ccc(F)cc3)c3ccc(Cl)cc3)c2c1C (centres unmarked) [Example 26, N-[2-(4-chlorophenyl)-3-(4-fluorophenyl)propyl]-5,6-dimethylfuro[2,3-d]pyrimidin-4-amine] | 0 to 19 | 0 | 0 | 0 | 0 | 0 | 0 | 0 | 0 | 0 to 19 | 0 to 19 | 0 to 19 | 0 to 19 |  |
| Cc1oc2ncnc(Oc3cccc(C(F)(F)F)c3)c2c1C [Example 63, 5,6-dimethyl-4-[3-(trifluoromethyl)phenoxy]furo[2,3-d]pyrimidine] | 0 to 19 | 0 | 0 | 0 | 0 | 0 | 50 | 0 | 80 | 0 to 19 | 20 to 89 | 0 to 19 | 0 to 19 |  |
| CCOc1ccc(CCNc2ncnc3oc(C)c(C)c23)cc1 [Example 3, 5,6-dimethyl-N-[2-(4-ethoxyphenyl)ethyl]furo[2,3-d]pyrimidin-4-amine] | 20 to 89 | 0 | 0 | 30 | 0 | 0 | 0 | 0 | 0 | 20 to 89 | 20 to 89 | 0 to 19 | 0 to 19 |  |
| CCCC(C)(CC)Oc1ccc(CCOc2ncnc3oc(C)c(C)c23)cc1 (centres unmarked) [Example 74, 5,6-dimethyl-4-[2-[4-(1-ethyl-1-methylbutoxy)phenyl]ethoxy]furo[2,3-d]pyrimidine] | 0 to 19 |  | 0 |  | 0 |  | 100 |  | 90 | 0 to 19 | 20 to 89 | 0 to 19 | 0 to 19 |  |
| Cc1oc2ncnc(OC3CN4CCC3CC4)c2c1C (centres unmarked) [Example 17, 5,6-dimethyl-4-(1-azabicyclo[2.2.2]oct-3-yloxy)furo[2,3-d]pyrimidine] | 0 to 19 |  |  |  |  |  |  |  |  | 0 to 19 | 0 to 19 | 0 to 19 | 0 to 19 | mortality at 12 ppm [2]: 0%; mortality at 24 ppm [2]: 0%; mortality at 200 ppm [3]: 0%; mortality at 400 ppm [3]: 0%; mortality at 200 ppm [4]: 0%; mortality at 400 ppm [4]: 0%; mortality at 200 ppm [5]: 0%; mortality at 400 ppm [5]: 0% |
| Cc1cc2c(Oc3ccc(F)cc3)ncnc2o1 [Example 5, 6-methyl-4-(4-fluorophenoxy)furo[2,3-d]pyrimidine] | 0 to 19 | 0 | 0 | 0 | 0 | 0 | 0 | 0 | 0 | 90 to 100 | 0 to 19 | 20 to 89 | 0 to 19 |  |
| Cc1coc2ncnc(NCCSCc3c(F)cccc3Cl)c12 [Example 16, 5-methyl-N-[2-[[ (2-chloro-6-fluorophenyl)methyl]thio]ethyl]furo[2,3-d]pyrimidin-4-amine] | 0 to 19 | 0 | 0 | 0 | 0 | 0 | 0 | 0 | 0 | 0 to 19 | 0 to 19 | 0 to 19 | 0 to 19 |  |
